In ChEMBL document CHEMBL1201862, “PubChem BioAssay data set” (2004):
The source made the active and inactive calls. Rule as the data show it: actives have a measured IC50 and inactives only a lower limit.

Target: Envelope glycoprotein gp160 (Human immunodeficiency virus 1, UniProt Q6QLK5)
Assay: cell-free HIV fusion peptide-binding blockers – biochemical, uHTS, fluorescence dequenching, […] (AID 1986)

Envelope glycoprotein gp160, sequence (Q6QLK5 whole entry, the tested form may be a part): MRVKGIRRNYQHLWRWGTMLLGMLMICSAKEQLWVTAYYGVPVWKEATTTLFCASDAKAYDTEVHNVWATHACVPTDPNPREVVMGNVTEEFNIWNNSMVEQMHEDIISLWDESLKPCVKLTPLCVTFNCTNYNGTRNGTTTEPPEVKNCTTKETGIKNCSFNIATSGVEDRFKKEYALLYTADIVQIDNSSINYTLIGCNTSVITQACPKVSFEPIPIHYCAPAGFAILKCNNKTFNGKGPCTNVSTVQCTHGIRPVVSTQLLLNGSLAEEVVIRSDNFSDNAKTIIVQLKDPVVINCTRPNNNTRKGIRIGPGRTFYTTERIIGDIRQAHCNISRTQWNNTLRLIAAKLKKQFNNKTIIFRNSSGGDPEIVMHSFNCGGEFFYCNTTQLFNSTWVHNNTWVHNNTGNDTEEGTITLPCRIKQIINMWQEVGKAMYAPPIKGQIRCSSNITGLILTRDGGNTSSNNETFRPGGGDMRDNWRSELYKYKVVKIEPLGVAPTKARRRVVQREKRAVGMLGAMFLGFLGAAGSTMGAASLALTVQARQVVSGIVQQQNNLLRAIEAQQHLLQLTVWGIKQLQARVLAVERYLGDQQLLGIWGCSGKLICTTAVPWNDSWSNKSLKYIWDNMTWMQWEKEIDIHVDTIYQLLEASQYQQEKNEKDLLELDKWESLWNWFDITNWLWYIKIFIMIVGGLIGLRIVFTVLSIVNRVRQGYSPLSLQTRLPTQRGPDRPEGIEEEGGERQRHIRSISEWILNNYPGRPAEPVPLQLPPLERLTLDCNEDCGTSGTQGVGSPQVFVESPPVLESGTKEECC

CN(C)S(=O)(=O)c1cccc(-c2nn(-c3ccccc3)cc2/C=C2\SC(=S)NC2=O)c1
IC50: 11.8 µM (active)

COc1cc(C(c2c(C(=O)O)[nH]c3ccccc23)c2c(C(=O)O)[nH]c3ccccc23)ccc1OCc1ccccc1
IC50: 7.01 µM (active)
